According to patent US20190216751A1, “Compositions and Methods for the Treatment and Prevention of Cancer” (California State University Northridge, priority 2017, published 2019):

Tests used:
[1] = test system: eIF5A localization in 4T1 cells; experiment: Immunofluorescence, subcellular localization of total eIF5A; assay type: cell-based, mouse; conditions: 10 μM each drug, 48 hours
Description: The next research questions revolved around asking how TGFβ is regulating eIF5A and what other proteins might be involved to completely block TGFβ-induced EMT. This led to histone deacetylase enzyme 6 (HDAC6). HDAC6 has been previously reported to be responsible for the deacetylation of eIF5A in the nucleus in order to make it readily available for hypusination and later transport out in the cytoplasm for functioning as a translation factor. To determine if it were possible to further increase the efficacy or potency of GC7, the inventors co-treated with Tubastatin A (an HDAC6 inhibitor) in 4T1 and 67NR cells as well as MDA-MB-468 cells which initially were not very sensitive to GC7. Triple negative human breast cancer cell line, BT547, was also used to see if another cell line representative of this breast cancer subtype was sensitive towards DHPS and HDAC6 inhibition. (FIGS. 5A and 5B). Here, are shown cell viability graphs for these four cell lines pretreated with GC7 at 1 μM and after 12 hours were exposed to various concentrations of Tubastatin A (TubA) ranging from 0.1 nM to 100 μM. […] MDA-MB-468 and BT549 cells remained to be insensitive to TubA with or without GC7 pretreatment (FIG. 5A). […]

[2] = test system: PEAK1 protein; experiment: Western blot PEAK1; assay type: cell-based, mouse, human; conditions: GC7 0.1 μM to 100 μM, 48 hours; 4T1, 67NR and MCF10CA1a cells
Description: The inventors sought to determine if the decrease in cell viability is due to the inhibition of post translational modification of eIF5A. To test this, all cell lines were treated with GC7 at 100 μM for 48 hours—which were the time point and concentration at which a decrease in cell viability was seen (FIG. 2B). The inventors then collected, performed a western blot and immunoblotted for hypusine, total eIF5A and β-actin as a loading control (FIG. 3A). […] To test if this effect is dose-dependent, 4T1, 67NR and MCF10CA1a cells were treated with various concentrations of GC7 ranging from 0.1 μM to 100 μM. Protein lysates were then collected after 48 hours of treatment and performed a western blot. […] To validate this in breast cancer cells, the inventors immunoblotted for PEAK1 as well as E-cadherin, hypusine, total eIF5A and β-actin as a loading control (FIG. 3B). […] The inventors next looked at cell viability at lower concentrations of GC7, such as 1 μM and 10 μM, where a decrease in hypusinated eIF5A is still achieved but the decrease in cell viability is not as great in lower concentrations that do still target hypusinated eIF5A (FIG. 3C).
Cell lines were plated in a 6 well plate at 1e5 cells/mL and left to attach overnight. […] Protein concentrations were determined using Bradford Assay. […] Band intensity graphs were quantified using Fiji software after image thresholding.

In the case of N=C(N)NCCCCCCCN.O=S(=O)(O)O [GC7, N1-Guanyl-1,7-diaminoheptane], the “localization of total eIF5A” value [1] is reported as “predominantly cytoplasmic” and the PEAK1 protein expression [2] is reported as “striking down regulation of PEAK1 protein in a dose-dependent manner”.
